The target in experiment [1] is T1, GPR17 (Homo sapiens, UniProt Q13304). As to the kind of experiment: cAMP accumulation functional assay (HTRF, Schild analysis). The experiment is classed as cell-based. On the set-up: host or cells: Flp-In T-REx CHO. The settings on record: CHO hGPR17 cells, Schild analysis vs MDL29,951, 5 μM forskolin, read-out: cAMP assay pA2 (converted). The procedure: Flp-In T-REx CHO cells stably expressing human GPR17 receptor (CHO hGPR17) from Evi Kostenis' lab (Bonn University, Germany) were cultured at 37° C. in a humidified atmosphere of 5% CO2. Cells were grown in DMEM with Nutrient Mixture F-12 supplemented with hygromycin B (500 μg/mL) and blasticidin (30 μg/mL). Expression from the Flp-In locus was induced by treatment with doxycycline (1 μg/mL) for 16-20 h prior assays.
T1 sequence (Q13304 whole entry): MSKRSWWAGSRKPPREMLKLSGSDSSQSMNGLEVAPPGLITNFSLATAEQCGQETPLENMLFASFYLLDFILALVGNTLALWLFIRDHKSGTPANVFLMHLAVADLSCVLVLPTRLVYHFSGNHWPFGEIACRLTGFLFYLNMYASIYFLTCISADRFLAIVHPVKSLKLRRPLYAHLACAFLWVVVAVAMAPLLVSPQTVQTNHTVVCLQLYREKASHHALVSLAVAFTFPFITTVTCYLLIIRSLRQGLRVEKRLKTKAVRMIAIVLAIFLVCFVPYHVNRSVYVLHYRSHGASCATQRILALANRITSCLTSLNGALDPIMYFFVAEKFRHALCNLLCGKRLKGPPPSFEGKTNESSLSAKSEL
GPR17 activation can also recruit Gi-type G-protein signaling, resulting in a decrease of intracellular cyclic adenosine monophosphate (cAMP). Intracellular cAMP changes can be measured using the HTRF cAMP dynamic assay kit from CisBio (Codolet, France). Using homogenous time-resolved fluorescence technology (HTRF), the assay is based on competition between native cAMP produced by cells and cAMP labelled with the dye d2. The tracer binding was determined by an anti-cAMP antibody labeled with cryptate.
CHO hGPR17 were detached with PBS containing EDTA and dispatched in black 384-well plates with 5,000 cells per well. Cells were first incubated for 30 minutes at room temperature in HBSS Hepes (pH 7.4) containing vehicle or varying concentrations of test GPR17 antagonist/inverse agonist compounds. […] After 60 minutes incubation at room temperature, the reaction is terminated and the cells lysed by adding the d2 detection reagent and the cryptate reagent in 10 μL lysis buffer each according to manufacturer's instructions. After 60 minutes incubation, changes in cAMP concentrations are measured according to manufacturer's instructions using an Envision plate reader with laser excitation. All incubations were performed in duplicate. Data was analyzed using GraphPad Prism software using the 4-parameter logistic equation to measure MDL29,951 pEC50s in absence and presence of GPR17 antagonist/inverse agonist test compounds. Dose ratio (DR) were plotted against antagonist concentrations and Schild analysis provided estimated affinity pA2 of GPR17 antagonist/inverse agonist test compounds.
The activities of the Example compounds tested are depicted in the table below. The activity ranges A, B and C refer to pA2 values in the cAMP assay as follows: “A”: pA2<7.5, “B”: pA2 7.5<x≤8.5, “C”: pA2>8.5.

The target of experiment [2] is T1, GPR17. The experiment can be described thus: Calcium mobilization functional assay (GPR17 Ca2+ assay). The experiment is classed as cell-based. On the set-up: host or cells: Flp-In T-REx CHO. The settings on record: CHO hGPR17 cells, inhibition of 50 nM MDL29,951, Calcium 5 dye, FLIPR; read-out: Ca2+ assay pIC50 (converted). A digest of the protocol: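 pIC50 values were fitted with a 4-parameter logistic curve. They reflect test-compound inhibition of cytosolic Ca2+ release evoked by 50 nM MDL29,951, tracked as Calcium 5 fluorescence at room temperature. Cells were CHO Flp-In T-REx stably carrying human GPR17, induced with doxycycline 1 μg/mL for 16-20 h.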

Consider 28 compounds from patent US12071404B2, “Aza (indole)-, benzothiophene-, and benzofuran-3-sulfonamides” (UCB Pharma GmbH, priority 2016, dated 2024).

SMILES strings stand for the structures.

On to `O=S(=O)(Nc1ccc2nsnc2c1)c1c[nH]c2cc(Cl)ccc12` [Compound I-147, N-(2,1,3-benzothiadiazol-5-yl)-6-chloro-1H-indole-3-sulfonamide], for which, on GPR17 [1], the Kb was 3.16 to 31.6 nM. Further, the IC50 on GPR17 [2] is 3.16 to 31.6 nM.
Consider `C[S+]([O-])c1ccc2c(S(=O)(=O)Nc3ccc(C#N)cc3)c[nH]c2c1` (centres unmarked) [Compound I-237, N-(4-cyanophenyl)-6-(methylsulfinyl)-1H-indole-3-sulfonamide], for which the Kb on GPR17 [1] is more than 31.6 nM. Further, the IC50 at GPR17 [2] was more than 31.6 nM.
Consider `COCCOc1cc(F)c(NS(=O)(=O)c2c[nH]c3cc(Cl)ccc23)nc1F` [Compound I-365, 6-chloro-N-[3,6-difluoro-5-(2-methoxyethoxy)pyridin-2-yl]-1H-indole-3-sulfonamide], for which the Kb on GPR17 [1] was 3.16 to 31.6 nM. In addition, the IC50 on GPR17 [2] was 3.16 to 31.6 nM.
As for `O=S(=O)(Nc1nc(F)c(Cl)cc1F)c1c[nH]c2c3c(ccc12)CCC3` [Compound I-317, N-(5-chloro-3,6-difluoropyridin-2-yl)-1,6,7,8-tetrahydrocyclopenta[g]indole-3-sulfonamide], the Kb at GPR17 [1] was 3.16 to 31.6 nM. Besides, on GPR17 [2], the IC50 is 3.16 to 31.6 nM.
Consider `N#Cc1cc(NS(=O)(=O)c2c[nH]c3cc(Cl)ccc23)c2c(c1)OC(F)(F)O2` [Compound I-132, 6-chloro-N-(6-cyano-2,2-difluoro-1,3-benzodioxol-4-yl)-1H-indole-3-sulfonamide], for which the Kb on GPR17 [1] is 3.16 to 31.6 nM. At GPR17 [2], the IC50 was 3.16 to 31.6 nM.
Consider `COc1nc(NS(=O)(=O)c2c[nH]c3c2ccc2ccccc23)c(F)cc1Cl` [Compound I-329, N-(5-chloro-3-fluoro-6-methoxypyridin-2-yl)-1H-benzo[g]indole-3-sulfonamide], for which the Kb on GPR17 [1] was less than 3.16 nM. Besides, the IC50 on GPR17 [2] is less than 3.16 nM.
For the compound `COc1nc(NS(=O)(=O)c2c[nH]c3cc(N)ccc23)c(F)cc1CC#N` [Compound I-352, 6-amino-N-[5-(cyanomethyl)-3-fluoro-6-methoxypyridin-2-yl]-1H-indole-3-sulfonamide], the Kb at GPR17 [1] is 3.16 to 31.6 nM. The IC50 at GPR17 [2] is 3.16 to 31.6 nM.
With `COc1cc(NS(=O)(=O)c2c[nH]c3cc(Cl)ccc23)c(F)cc1C#N` [Compound I-143, 6-chloro-N-(4-cyano-2-fluoro-5-methoxyphenyl)-1H-indole-3-sulfonamide], at GPR17 [1], the Kb is less than 3.16 nM. Moreover, on GPR17 [2], the IC50 is less than 3.16 nM.
As to `C=Cc1cc(F)c(NS(=O)(=O)c2c[nH]c3cc(Cl)ccc23)nc1F` [Compound I-337, 6-chloro-N-(5-ethenyl-3,6-difluoropyridin-2-yl)-1H-indole-3-sulfonamide], the Kb on GPR17 [1] was less than 3.16 nM. In addition, the IC50 at GPR17 [2] is 3.16 to 31.6 nM.
The corresponding values for `N#Cc1ccc(NS(=O)(=O)c2coc3cc(Cl)ccc23)cc1` [Compound I-139, 6-chloro-N-(4-cyanophenyl)-1-benzofuran-3-sulfonamide] are more than 31.6 nM and 3.16 to 31.6 nM.
In the case of `Cc1cc(F)c(NS(=O)(=O)c2c[nH]c3cc(Cl)ccc23)nc1F` [Compound I-348, 6-chloro-N-(3,6-difluoro-5-methylpyridin-2-yl)-1H-indole-3-sulfonamide], the Kb on GPR17 [1] is 3.16 to 31.6 nM. At GPR17 [2], the IC50 was less than 3.16 nM.
In the case of `N#Cc1ccc(NS(=O)(=O)c2c[nH]c3nc(Br)ccc23)cc1` [Compound I-80, 6-bromo-N-(4-cyanophenyl)-1H-pyrrolo[2,3-b]pyridine-3-sulfonamide], the Kb on GPR17 [1] was 3.16 to 31.6 nM. Besides, the IC50 at GPR17 [2] was less than 3.16 nM.
The like results for `COc1nc(NS(=O)(=O)c2c[nH]c3cc([N+](=O)[O-])ccc23)c(F)cc1CC#N` [Compound I-351, N-[5-(cyanomethyl)-3-fluoro-6-methoxypyridin-2-yl]-6-nitro-1H-indole-3-sulfonamide] were, in that order, 3.16 to 31.6 nM and 3.16 to 31.6 nM.
Consider `CCO/C=C/c1cc(F)c(NS(=O)(=O)c2c[nH]c3cc(Cl)ccc23)nc1F` [Compound I-332, 6-chloro-N-{5-[(E)-2-ethoxyethenyl]-3,6-difluoropyridin-2-yl}-1H-indole-3-sulfonamide], for which the Kb on GPR17 [1] was less than 3.16 nM. Besides, at GPR17 [2], the IC50 is 3.16 to 31.6 nM.
For the compound `O=S(=O)(Nc1cccc2c1OC(F)(F)O2)c1c[nH]c2cc(Cl)ccc12` [Compound I-123, 6-chloro-N-(2,2-difluoro-1,3-benzodioxol-4-yl)-1H-indole-3-sulfonamide], the Kb on GPR17 [1] was 3.16 to 31.6 nM. Further, the IC50 at GPR17 [2] is 3.16 to 31.6 nM.
Turning to `COc1nc(NS(=O)(=O)c2c[nH]c3cc(Cl)c(Br)cc23)c(F)cc1CC#N` [Compound I-324, 5-bromo-6-chloro-N-[5-(cyanomethyl)-3-fluoro-6-methoxypyridin-2-yl]-1H-indole-3-sulfonamide], the Kb on GPR17 [1] was less than 3.16 nM. Moreover, on GPR17 [2], the IC50 was less than 3.16 nM.
Regarding `O=S(=O)(Nc1cc(F)c(Cl)cc1F)c1c[nH]c2c(Cl)c(Br)ccc12` [Compound I-347, 6-bromo-7-chloro-N-(4-chloro-2,5-difluorophenyl)-1H-indole-3-sulfonamide], the Kb at GPR17 [1] was less than 3.16 nM. Besides, the IC50 on GPR17 [2] was 3.16 to 31.6 nM.
For `O=c1[nH]c2cccc(NS(=O)(=O)c3c[nH]c4cc(Cl)ccc34)c2o1` [Compound I-301, 6-chloro-N-(2-oxo-2,3-dihydro-1,3-benzoxazol-7-yl)-1H-indole-3-sulfonamide], at GPR17 [1], the Kb is 3.16 to 31.6 nM. Besides, the IC50 on GPR17 [2] is 3.16 to 31.6 nM.
For the compound `N#CCc1ccc(NS(=O)(=O)c2c[nH]c3cc(Cl)ccc23)c(F)c1` [Compound I-206, 6-chloro-N-[4-(cyanomethyl)-2-fluorophenyl]-1H-indole-3-sulfonamide], at GPR17 [1], the Kb was less than 3.16 nM. Besides, the IC50 on GPR17 [2] was 3.16 to 31.6 nM.
The like results for `N#Cc1ccc(NS(=O)(=O)c2c[nH]c3cc(-c4cccs4)ccc23)c(F)c1` [Compound I-235, N-(4-cyano-2-fluorophenyl)-6-(thiophen-2-yl)-1H-indole-3-sulfonamide] were, in that order, less than 3.16 nM and 3.16 to 31.6 nM.
As to `CCOCCc1cc(F)c(NS(=O)(=O)c2c[nH]c3cc(Cl)ccc23)nc1F` [Compound I-333, 6-chloro-N-[5-(2-ethoxyethyl)-3,6-difluoropyridin-2-yl]-1H-indole-3-sulfonamide], the Kb on GPR17 [1] was less than 3.16 nM. Moreover, the IC50 at GPR17 [2] is less than 3.16 nM.
As to `O=S(=O)(Nc1ccc(OC(F)(F)F)cc1F)c1c[nH]c2cc(Cl)ccc12` [Compound I-276, 6-chloro-N-[2-fluoro-4-(trifluoromethoxy)phenyl]-1H-indole-3-sulfonamide], the Kb on GPR17 [1] is 3.16 to 31.6 nM. For the same compound, on GPR17 [2], the IC50 was 3.16 to 31.6 nM.
Take `O=S(=O)(Nc1cc2c(cc1F)OC(F)(F)O2)c1c[nH]c2cc(Cl)ccc12` [Compound I-125, 6-chloro-N-(2,2,6-trifluoro-1,3-benzodioxol-5-yl)-1H-indole-3-sulfonamide]: the Kb at GPR17 [1] was 3.16 to 31.6 nM. Also, at GPR17 [2], the IC50 is 3.16 to 31.6 nM.
With `COc1cc(Br)cnc1NS(=O)(=O)c1c[nH]c2cc(Cl)ccc12` [Compound I-129, N-(5-bromo-3-methoxypyridin-2-yl)-6-chloro-1H-indole-3-sulfonamide], the Kb on GPR17 [1] is 3.16 to 31.6 nM. Further, the IC50 on GPR17 [2] was 3.16 to 31.6 nM.
Turning to `O=S(=O)(Nc1ccc(Cl)cc1)c1c[nH]c2cc(Cl)ccc12` [Compound I-24, 6-chloro-N-(4-chlorophenyl)-1H-indole-3-sulfonamide], the Kb at GPR17 [1] is more than 31.6 nM. In addition, the IC50 at GPR17 [2] was more than 31.6 nM.
`C#Cc1ccc(NS(=O)(=O)c2c[nH]c3cc(OC)ccc23)c(F)c1` [Compound I-274, N-(4-ethynyl-2-fluorophenyl)-6-methoxy-1H-indole-3-sulfonamide]: on GPR17 [1], the Kb is 3.16 to 31.6 nM. Moreover, at GPR17 [2], the IC50 was 3.16 to 31.6 nM.
On to `O=S(=O)(Nc1ccc2nsnc2c1)c1c[nH]c2nc(Cl)ccc12` [Compound I-179, N-(2,1,3-benzothiadiazol-5-yl)-6-chloro-1H-pyrrolo[2,3-b]pyridine-3-sulfonamide], for which the Kb on GPR17 [1] is 3.16 to 31.6 nM. Further, the IC50 on GPR17 [2] is less than 3.16 nM.
In the case of `O=S(=O)(Nc1ccc(C(F)(F)F)cc1F)c1c[nH]c2nc(Cl)ccc12` [Compound I-296, 6-chloro-N-[2-fluoro-4-(trifluoromethyl)phenyl]-1H-pyrrolo[2,3-b]pyridine-3-sulfonamide], at GPR17 [1], the Kb was 3.16 to 31.6 nM. In addition, the IC50 on GPR17 [2] was 3.16 to 31.6 nM.
